Assay results as given in patent US11220502B2, “Sulfone compounds and derivatives for the treatment and prophylaxis of virus infection” (Hoffmann-La Roche Inc., priority 2018, dated 2022).
Where two headings read alike, the source gives them in different places.

Target: T1, human TLR7 (Homo sapiens, UniProt Q9NYK1)
T1 sequence (Q9NYK1 27-1049): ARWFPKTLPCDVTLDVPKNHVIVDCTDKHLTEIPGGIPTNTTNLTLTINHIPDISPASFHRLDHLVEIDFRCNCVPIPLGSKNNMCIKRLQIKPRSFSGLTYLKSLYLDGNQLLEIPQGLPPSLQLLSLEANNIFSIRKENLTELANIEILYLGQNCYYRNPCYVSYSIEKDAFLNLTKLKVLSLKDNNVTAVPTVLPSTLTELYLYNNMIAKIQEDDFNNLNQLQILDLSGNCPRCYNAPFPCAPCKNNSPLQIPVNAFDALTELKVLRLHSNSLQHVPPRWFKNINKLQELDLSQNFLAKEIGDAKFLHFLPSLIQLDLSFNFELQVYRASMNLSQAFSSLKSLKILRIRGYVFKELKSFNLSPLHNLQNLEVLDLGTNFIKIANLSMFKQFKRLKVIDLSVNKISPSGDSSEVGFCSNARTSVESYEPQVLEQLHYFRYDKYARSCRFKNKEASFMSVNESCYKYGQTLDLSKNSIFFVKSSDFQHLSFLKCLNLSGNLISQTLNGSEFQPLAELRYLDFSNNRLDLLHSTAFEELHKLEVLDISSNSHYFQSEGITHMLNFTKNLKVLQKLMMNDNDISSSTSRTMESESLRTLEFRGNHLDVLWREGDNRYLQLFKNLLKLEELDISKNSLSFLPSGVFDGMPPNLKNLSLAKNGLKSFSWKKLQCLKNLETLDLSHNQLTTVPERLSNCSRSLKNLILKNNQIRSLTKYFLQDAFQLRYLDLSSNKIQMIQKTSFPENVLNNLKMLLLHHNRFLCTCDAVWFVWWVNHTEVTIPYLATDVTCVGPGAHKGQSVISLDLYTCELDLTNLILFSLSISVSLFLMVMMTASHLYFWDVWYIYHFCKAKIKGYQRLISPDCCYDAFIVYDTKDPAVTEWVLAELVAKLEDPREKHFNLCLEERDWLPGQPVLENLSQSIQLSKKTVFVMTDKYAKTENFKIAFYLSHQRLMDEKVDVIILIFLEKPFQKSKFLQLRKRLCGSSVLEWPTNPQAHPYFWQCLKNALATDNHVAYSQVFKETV
Experiment: HEK293-Blue-hTLR-7 cells assay (SEAP reporter, NF-κB activation)
Format: cell-based
Settings: for EC50: HEK293-Blue-hTLR-7 cells, 20 hrs incubation, SEAP reporter; for Ratio (EC50(prodrug)/EC50(active form)): calculated ratio of prodrug EC50 to EC50 of corresponding active form
From the text: HEK293-Blue-hTLR-7 Cells Assay
A stable HEK293-Blue-hTLR-7 cell line was purchased from InvivoGen (Cat. #: hkb-ht1r7, San Diego, Calif., USA). These cells were designed for studying the stimulation of human TLR7 by monitoring the activation of NF-κB. A SEAP (secreted embryonic alkaline phosphatase) reporter gene was placed under the control of the IFN-β minimal promoter fused to five NF-κB and AP-1-binding sites. The SEAP was induced by activating NF-κB and AP-1 via stimulating HEK-Blue hTLR7 cells with TLR7 ligands. Therefore the reporter expression was regulated by the NF-κB promoter upon stimulation of human TLR7 for 20 hrs. The cell culture supernatant SEAP reporter activity was determined using QUANTI-Blue™ kit (Cat. #: rep-qb1, Invivogen, San Diego, Calif., USA) at a wavelength of 640 nm, a detection medium that turns purple or blue in the presence of alkaline phosphatase.
HEK293-Blue-hTLR7 cells were incubated at a density of 250,000˜450,000 cells/mL in a volume of 180 μL in a 96-well plate in Dulbecco's Modified Eagle's medium (DMEM) containing 4.5 g/L glucose, 50 U/mL penicillin, […], […], 2 mM L-glutamine, 10% (V/V) heat-inactivated fetal bovine serum for 24 hrs. Then the HEK293-Blue-hTLR-7 cells were incubated with addition of 20 μL test compound in a serial dilution in the presence of final DMSO at 1% and perform incubation under 37° C. in a CO2 incubator for 20 hrs. Then 20 μL of the supernatant from each well was incubated with 180 μL Quanti-blue substrate solution at 37° C. for 2 hrs and the absorbance was read at 620˜655 nm using a spectrophotometer. The signalling pathway that TLR7 activation leads to downstream NF-κB activation has been widely accepted, and therefore similar reporter assay was also widely used for evaluating TLR7 agonist (Tsuneyasu Kaisho and Takashi Tanaka, Trends in Immunology, Volume 29, Issue 7, July 2008, […]; Hiroaki Hemmi et al, Nature Immunology 3, 196-200 (2002)).
The Compounds and Examples of the present invention were tested in HEK293-hTLR-7 assay for their TLR7 agonism activity as described herein and results are listed in Table 1. […] The calculated ratio of EC50(prodrug)/EC50(active form) were within the range from 27.7 to about 8233.

[1] = corresponding active form, read-out: HEK293-hTLR-7 EC50 (Active form)
[2] = prodrug, read-out: HEK293-hTLR-7 EC50 (Prodrug)

EC50 [1] | EC50 [2] | Ratio (EC50(prodrug)/EC50(active form)) | SMILES
0.075 µM | – | – | CCCS(=O)(=O)c1nc(N)c2[nH]c(=O)n(Cc3ccccc3)c2n1 [Compound 1a, 6-amino-9-benzyl-2-propylsulfonyl-7H-purin-8-one]
0.17 µM | – | – | CCS(=O)(=O)c1nc(N)c2[nH]c(=O)n(Cc3ccccc3)c2n1 [Compound 3a, 6-amino-9-benzyl-2-ethylsulfonyl-7H-purin-8-one]
0.021 µM | – | – | CCCS(=O)(=O)c1nc(N)c2[nH]c(=O)n(Cc3ccc(Cl)cc3)c2n1 [Compound 6a, 6-amino-9-[(4-chlorophenyl)methyl]-2-propylsulfonyl-7H-purin-8-one]
0.065 µM | – | – | CCCS(=O)(=O)c1nc(N)c2[nH]c(=O)n(Cc3ccc(C)cc3)c2n1 [Compound 12a, 6-amino-2-(propylsulfonyl)-9-(p-tolylmethyl)-7H-purin-8-one]
0.065 µM | – | – | CCS(=O)(=O)c1nc(N)c2[nH]c(=O)n(Cc3ccc(C)cc3)c2n1 [Compound 14a, 6-amino-2-ethylsulfonyl-9-(p-tolylmethyl)-7H-purin-8-one]
0.06 µM | – | – | CCS(=O)(=O)c1nc(N)c2[nH]c(=O)n(Cc3ccc(F)cc3)c2n1 [Compound 18a, 6-Amino-2-ethylsulfonyl-9-[(4-fluorophenyl)methyl]-7H-purin-8-one]
0.008 µM | – | – | CCS(=O)(=O)c1nc(N)c2[nH]c(=O)n(Cc3ccc(F)cc3)c2n1 [Compound 20a, 6-Amino-2-ethylsulfonyl-9-[(4-fluorophenyl)methyl]-7H-purin-8-one]
0.023 µM | – | – | CCS(=O)(=O)c1nc(N)c2[nH]c(=O)n(Cc3ccc(Br)cc3)c2n1 [Compound 22a, 6-Amino-2-ethylsulfonyl-9-[(4-bromophenyl)methyl]-7H-purin-8-one]
– | 10.9 µM | 145.3 | CCCS(=O)(=O)c1nc(N)c2c(n1)n(Cc1ccccc1)c(=O)n2C(=O)N(C)CC [Example 1, 6-Amino-9-benzyl-N-ethyl-N-methyl-8-oxo-2-propylsulfonyl-purine-7-carboxamide]
– | 6.5 µM | 86.7 | CCCN(C)C(=O)n1c(=O)n(Cc2ccccc2)c2nc(S(=O)(=O)CCC)nc(N)c21 [Example 2, 6-Amino-9-benzyl-N-methyl-8-oxo-N-propyl-2-propylsulfonyl-purine-7-carboxamide]
– | 104 µM | 614.1 | CCN(C)C(=O)n1c(=O)n(Cc2ccccc2)c2nc(S(=O)(=O)CC)nc(N)c21 [Example 3, 6-Amino-9-benzyl-N-ethyl-2-ethylsulfonyl-N-methyl-8-oxo-purine-7-carboxamide]
– | 87.5 µM | 514.7 | CCCN(C)C(=O)n1c(=O)n(Cc2ccccc2)c2nc(S(=O)(=O)CC)nc(N)c21 [Example 4, 6-Amino-9-benzyl-2-ethylsulfonyl-N-methyl-8-oxo-N-propyl-purine-7-carboxamide]
– | 29.7 µM | 174.7 | CCS(=O)(=O)c1nc(N)c2c(n1)n(Cc1ccccc1)c(=O)n2C(=O)N1CCCC1 [Example 5, 6-Amino-9-benzyl-2-ethylsulfonyl-7-(pyrrolidine-1-carbonyl)purin-8-one]
– | 2.6 µM | 123.8 | CCCN(C)C(=O)n1c(=O)n(Cc2ccc(Cl)cc2)c2nc(S(=O)(=O)CCC)nc(N)c21 [Example 6, 6-Amino-9-[(4-chlorophenyl)methyl]-N-methyl-8-oxo-N-propyl-2-propylsulfonyl-purine-7-carboxamide]
– | 3.2 µM | 152.4 | CCCS(=O)(=O)c1nc(N)c2c(n1)n(Cc1ccc(Cl)cc1)c(=O)n2C(=O)N(C)CC [Example 7, 6-Amino-9-[(4-chlorophenyl)methyl]-N-ethyl-N-methyl-8-oxo-2-propylsulfonyl-purine-7-carboxamide]
– | 18.2 µM | 219.3 | CCN(C)C(=O)n1c(=O)n(Cc2ccc(Cl)cc2)c2nc(S(=O)(=O)CC)nc(N)c21 [Example 9, 6-Amino-9-[(4-chlorophenyl)methyl]-N-ethyl-2-ethylsulfonyl-N-methyl-8-oxo-purine-7-carboxamide]
